Activity calls are given as the source filed them. The calls are words filed in the database; no cut-off is given here.
Tests used:
Cirsium arvense = experiment: Herbicidal activity against Cirsium arvense (Canada thistle) assessed as induction of leaf necrotic lesions measured 48 hr post compound treatment by leaf disk- puncture bioassay
Sonchus arvensis = experiment: Herbicidal activity against Sonchus arvensis (field sow-thistle) assessed as induction of leaf necrotic lesions measured 48 hr post compound treatment by leaf disk- puncture bioassay

C[C@H]1C/C=C/[C@H]2[C@@H]3O[C@]3(C)[C@@H](C)[C@H]3[C@H](Cc4ccccc4)NC(=O)[C@]32OC(=O)/C=C/[C@@H](O)CCC1
Activity (Cirsium arvense): Active
Activity (Sonchus arvensis): Active

C=C1[C@@H](C)[C@H]2[C@H](Cc3ccccc3)NC(=O)[C@]23C(=O)/C=C/[C@H](O)CCC[C@@H](C)C/C=C/[C@H]3[C@@H]1O
Activity (Cirsium arvense): Active
Activity (Sonchus arvensis): Active

C=C1[C@@H](C)[C@H]2[C@H](Cc3ccccc3)NC(=O)[C@]23OC(=O)/C=C/CC(O)CC[C@@H](C)C/C=C/[C@H]3[C@@H]1O (stereo partly specified)
Activity (Cirsium arvense): Active

O=Cc1ccc(O)cc1
Activity (Cirsium arvense): inactive
Activity (Sonchus arvensis): inactive

C[C@H]1C/C=C/[C@H]2C=C(CO)[C@@H](C)[C@H]3[C@H](Cc4ccccc4)NC(=O)[C@]32OC(=O)/C=C/[C@H](O)CCC1
Activity (Cirsium arvense): Active
Activity (Sonchus arvensis): Active

C=C1[C@@H](C)[C@H]2[C@H](Cc3ccccc3)NC(=O)[C@]23OC(=O)/C=C/[C@H](O)CCC[C@@H](C)C/C=C/[C@H]3[C@@H]1O
Activity (Cirsium arvense): Active
Activity (Sonchus arvensis): Active

Source: ChEMBL document CHEMBL3045282, “Production of phytotoxins by Phoma exigua var. exigua, a potential mycoherbicide against perennial thistles” (J Agric Food Chem, 2008)
